Data on 18 compounds can be found in US9388148B2, “Acylaminocycloalkyl compounds suitable for treating disorders that respond to modulation of dopamine D3 receptor” (AbbVie Deutschland GmbH & Co. KG, priority 2013, dated 2016).

SMILES strings stand for the structures.

Data set [1] addresses T1, human dopamine D2L receptors (long isoform) (Homo sapiens, UniProt P14416).
T1 construct: expressed in transfected cells; host or cells: HEK-293
In words: Dopamine D2L receptor binding ([125I]iodospiperone displacement). As to conditions: selectivity ratio, human D2L vs human D3 binding. As to the method:
The substance to be tested was either dissolved in methanol/Chremophor® (BASF SE) or in dimethyl sulfoxide and then diluted with water to the desired concentration.
Each assay mixture was run in triplicate. • The incubation buffer contained 50 mM tris, 120 mM NaCl, 5 mM KCl, 2 mM CaCl2, 2 mM MgCl2 and 0.1% bovine serum albumin, 10 μM quinolone and 0.1% ascorbic acid (prepared fresh daily). […] Each assay mixture was run in triplicate. • The incubation buffer contained 50 mM tris, 120 mM NaCl, 5 mM KCl, 2 mM CaCl2, 2 mM MgCl2 and 0.1% bovine serum albumin. The buffer was adjusted to pH 7.4 with HCl. c) Measurement and analysis: • After having been incubated at 25° C. for 60 minutes, the assay mixtures were filtered through a Whatman GF/B glass fiber filter under vacuum using a cell col-lecting device. The filters were transferred to scintillation viols using a filter transfer system. After 4 ml of Ultima Gold® (Packard) have been added, the samples were shaken for one hour and the radioactivity was then counted in a Beta-Counter (Packard, Tricarb 2000 or 2200CA).

Data set [2] is described as follows: Determination of the microsomal half-life / microsomal clearance. In kind it is in vitro ADME. The following applies: pH 7.4; human liver microsomes, 0.5 μM test substance, 0.25 mg protein/ml, NADPH, 37° C.; read-out: Human mCl (mikrosomal clearance). The method, then:
The metabolic stability of the compounds of the invention was determined in the following assay.
The test substances were incubated in a concentration of 0.5 μM as follows:
0.5 μM test substance are preincubated together with liver microsomes from different species (from rat, human or other species) (0.25 mg of microsomal protein/ml) in 0.05 M potassium phosphate buffer of pH 7.4 in microtiter plates at 37° C. for 5 min. The reaction is started by adding NADPH (1 mg/mL). After 0, 5, 10, 15, 20 and 30 min, 50 μl aliquots are removed, and the reaction is immediately stopped and cooled with the same volume of acetonitrile. The samples are frozen until analyzed. The remaining concentration of undegraded test substance is determined by MSMS. The half-life (T1/2) is determined from the gradient of the signal of test substance/unit time plot, it being possible to calculate the half-life of the test substance, assuming first order kinetics, from the decrease in the concentration of the compound with time. The microsomal clearance (mC1) is calculated from mC1=1n2/T1/2/(content of microsomal protein in mg/ml)×1000 [ml/min/mg] (modified from references: Di, The Society for Biomoleculur Screening, 2003, 453-462; Obach, DMD, 1999 vol 27. N 11, 1350-1359).
In general terms: Microsomes from liver hold many membrane-bound enzymes, among them those of drug oxidation.

T1 sequence (P14416 whole entry, canonical isoform): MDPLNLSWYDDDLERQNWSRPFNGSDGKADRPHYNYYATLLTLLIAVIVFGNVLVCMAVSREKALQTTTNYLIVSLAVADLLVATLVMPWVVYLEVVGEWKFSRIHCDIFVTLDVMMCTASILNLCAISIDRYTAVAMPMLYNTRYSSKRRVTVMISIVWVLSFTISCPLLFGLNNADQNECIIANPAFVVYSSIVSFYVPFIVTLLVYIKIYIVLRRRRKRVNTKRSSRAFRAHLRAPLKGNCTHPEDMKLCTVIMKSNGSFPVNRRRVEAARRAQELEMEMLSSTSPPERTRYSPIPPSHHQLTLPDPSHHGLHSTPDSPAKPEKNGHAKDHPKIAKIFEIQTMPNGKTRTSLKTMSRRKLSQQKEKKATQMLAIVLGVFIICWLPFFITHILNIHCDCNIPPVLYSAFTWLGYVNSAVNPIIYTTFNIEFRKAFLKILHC

On to `COCCc1cc(N2CCN(CC[C@H]3C[C@H](NC(=O)C4CCC(O)CC4)C3)CC2)nc(C(C)(C)C)n1` (relative stereo) [Compound 11, N-[trans-3-[2-[4-[2-tert-butyl-6-(2-methoxyethyl)pyrimidin-4-yl]piperazin-1-yl]ethyl]cyclobutyl]-4-hydroxy-cyclohexanecarboxamide], for which the “D2/D3, Ki (D2L)/Ki (D3)” value in data set [1] was “++ (++ >20)”. For the same compound, the microsomal CLint at 0.5 μM in data set [2] lay in the range of 20 to 120 µL/min/mg.

Turning to `CC(C)(C)c1nc(C2CCC2)cc(N2CCN(CC[C@H]3CC[C@H](NC(=O)C4CC(O)(C(F)(F)F)C4)CC3)CC2)n1` (relative stereo) [Compound 19, N-[trans-4-[2-[4-(2-tert-butyl-6-cyclobutyl-pyrimidin-4-yl)piperazin-1-yl]ethyl]cyclohexyl]-3-hydroxy-3-(trifluoromethyl)cyclobutanecarboxamide], the “D2/D3, Ki (D2L)/Ki (D3)” value in data set [1] is listed as “+ (+ >10)”. In addition, the microsomal CLint at 0.5 μM in data set [2] lay within 20 to 120 µL/min/mg. In the same order, the values of `COCCc1cc(N2CCN(CC[C@H]3CC[C@H](NC(=O)C4CC(O)(C(F)(F)F)C4)CC3)CC2)nc(C(C)(C)C)n1` (relative stereo) [Compound 25, N-[trans-4-[2-[4-[2-tert-butyl-6-(2-methoxyethyl)pyrimidin-4-yl]piperazin-1-yl]ethyl]cyclohexyl]-3-hydroxy-3-(trifluoromethyl)cyclobutanecarboxamide] are “++ (++ >20)” and over 120 µL/min/mg. For `COCCc1cc(N2CCN(CC[C@H]3CC[C@@H](NC(=O)C4CC(O)(C(F)(F)F)C4)CC3)CC2)nc(C(C)(C)C)n1` (relative stereo) [Compound 26, N-[cis-4-[2-[4-[2-tert-butyl-6-(2-methoxyethyl)pyrimidin-4-yl]piperazin-1-yl]ethyl]cyclohexyl]-3-hydroxy-3-(trifluoromethyl)cyclobutanecarboxamide], in that order: “+++ (+++ >50)” and under 20 µL/min/mg. In the same order, the values of `CC(C)(C)c1nc(C2CCC2)cc(N2CCN(CC[C@H]3CC[C@H](NC(=O)[C@H]4CC[C@H](O)CC4)CC3)CC2)n1` [Compound 1, trans-N-[trans-4-[2-[4-(2-tert-butyl-6-cyclobutyl-pyrimidin-4-yl)piperazin-1-yl]ethyl]cyclohexyl]-4-hydroxy-cyclohexanecarboxamide] are “+++ (+++ >50)” and 20 to 120 µL/min/mg.

As for `COCCc1cc(N2CCN(CC[C@H]3CC[C@H](NC(=O)[C@H]4CC[C@H](O)CC4)CC3)CC2)nc(C(C)(C)C)n1` [Compound 2, trans-N-[trans-4-[2-[4-[2-tert-butyl-6-(2-methoxyethyl)pyrimidin-4-yl]piperazin-1-yl]ethyl]cyclohexyl]-4-hydroxy-cyclohexanecarboxamide], the “D2/D3, Ki (D2L)/Ki (D3)” value in data set [1] is “++ (++ >20)”. Besides, the microsomal CLint at 0.5 μM in data set [2] lay in the range of 20 to 120 µL/min/mg. For `COCCc1cc(N2CCN(CC[C@H]3CC[C@@H](NC(=O)[C@H]4CC[C@H](O)CC4)CC3)CC2)nc(C(C)(C)C)n1` [Compound 3, trans-N-[cis-4-[2-[4-[2-tert-butyl-6-(2-methoxyethyl)pyrimidin-4-yl]piperazin-1-yl]ethyl]cyclohexyl]-4-hydroxy-cyclohexanecarboxamide], in that order: “++ (++ >20)” and 20 to 120 µL/min/mg.

With `COCCc1cc(N2CCN(CC[C@H]3CC[C@H](NC(=O)[C@H]4CC[C@@H](O)CC4)CC3)CC2)nc(C(C)(C)C)n1` [Compound 4, cis-N-[trans-4-[2-[4-[2-tert-butyl-6-(2-methoxyethyl)pyrimidin-4-yl]piperazin-1-yl]ethyl]cyclohexyl]-4-hydroxy-cyclohexanecarboxamide], the “D2/D3, Ki (D2L)/Ki (D3)” value in data set [1] was “++ (++ >20)”. Moreover, the microsomal CLint at 0.5 μM in data set [2] was over 120 µL/min/mg. For `COCCc1cc(N2CCN(CC[C@H]3CC[C@@H](NC(=O)[C@H]4CC[C@@H](O)CC4)CC3)CC2)nc(C(C)(C)C)n1` [Compound 5, Cis-N-[cis-4-[2-[4-[2-tert-butyl-6-(2-methoxyethyl)pyrimidin-4-yl]piperazin-1-yl]ethyl]cyclohexyl]-4-hydroxy-cyclohexanecarboxamide], in that order: “++ (++ >20)” and over 120 µL/min/mg. For `CC(C)(C)c1nc(C2CCC2)cc(N2CCN(CC[C@H]3CC[C@@H](NC(=O)[C@H]4CC[C@H](O)CC4)CC3)CC2)n1` [Compound 6, trans-N-[cis-4-[2-[4-(2-tert-butyl-6-cyclobutyl-pyrimidin-4-yl)piperazin-1-yl]ethyl]cyclohexyl]-4-hydroxy-cyclohexanecarboxamide], in that order: “+++ (+++ >50)” and 20 to 120 µL/min/mg. For `COCCc1cc(N2CCN(CC[C@H]3C[C@H](NC(=O)[C@H]4CC[C@H](O)CC4)C3)CC2)nc(C(C)(C)C)n1.O=C(O)C(F)(F)F` [Compound 7, Trans-N-[trans-3-[2-[4-[2-tert-butyl-6-(2-methoxyethyl)pyrimidin-4-yl]piperazin-1-yl]ethyl]cyclobutyl]-4-hydroxy-cyclohexanecarboxamide; 2,2,2-trifluoroacetic acid], in that order: “+++ (+++ >50)” and 20 to 120 µL/min/mg.

As for `COCCc1cc(N2CCN(CC[C@H]3C[C@@H](NC(=O)[C@H]4CC[C@H](O)CC4)C3)CC2)nc(C(C)(C)C)n1.O=C(O)C(F)(F)F` [Compound 8, trans-N-[cis-3-[2-[4-[2-tert-butyl-6-(2-methoxyethyl)pyrimidin-4-yl]piperazin-1-yl]ethyl]cyclobutyl]-4-hydroxy-cyclohexanecarboxamide; 2,2,2-trifluoroacetic acid], the “D2/D3, Ki (D2L)/Ki (D3)” value in data set [1] is recorded as “+++ (+++ >50)”. For the same compound, the microsomal CLint at 0.5 μM in data set [2] was 20 to 120 µL/min/mg. For `CC(C)(C)c1nc(C2CCC2)cc(N2CCN(CC[C@H]3C[C@H](NC(=O)[C@H]4CC[C@H](O)CC4)C3)CC2)n1` [Compound 9, Trans-N-[trans-3-[2-[4-(2-tert-butyl-6-cyclobutyl-pyrimidin-4-yl)piperazin-1-yl]ethyl]cyclobutyl]-4-hydroxy-cyclohexanecarboxamide], in that order: “+++ (+++ >50)” and 20 to 120 µL/min/mg.

Turning to `CC(C)(C)c1nc(C2CCC2)cc(N2CCN(CC[C@H]3C[C@@H](NC(=O)[C@H]4CC[C@H](O)CC4)C3)CC2)n1` [Compound 10, Trans-N-[cis-3-[2-[4-(2-tert-butyl-6-cyclobutyl-pyrimidin-4-yl)piperazin-1-yl]ethyl]cyclobutyl]-4-hydroxy-cyclohexanecarboxamide], the “D2/D3, Ki (D2L)/Ki (D3)” value in data set [1] is on record as “+++ (+++ >50)”. In addition, in data set [2], the microsomal CLint at 0.5 μM was in the range of 20 to 120 µL/min/mg. In the same order, the values of `COCCc1cc(N2CCN(CC[C@H]3C[C@@H](NC(=O)[C@H]4CC[C@@H](O)CC4)C3)CC2)nc(C(C)(C)C)n1` [Compound 12, Cis-N-[cis-3-[2-[4-[2-tert-butyl-6-(2-methoxyethyl)pyrimidin-4-yl]piperazin-1-yl]ethyl]cyclobutyl]-4-hydroxy-cyclohexanecarboxamide] are “+++ (+++ >50)” and 20 to 120 µL/min/mg. In the same order, the values of `CC(C)(C)c1nc(C2CCC2)cc(N2CCN(CC[C@H]3CC[C@H](NC(=O)[C@H]4C[C@@H](O)C4)CC3)CC2)n1` [Compound 13, Cis-N-[trans-4-[2-[4-(2-tert-butyl-6-cyclobutyl-pyrimidin-4-yl)piperazin-1-yl]ethyl]cyclohexyl]-3-hydroxy-cyclobutanecarboxamide] are “++ (++ >20)” and over 120 µL/min/mg. For `CC(C)(C)c1nc(C2CCC2)cc(N2CCN(CC[C@H]3CC[C@H](NC(=O)[C@H]4CC[C@@H](O)CC4)CC3)CC2)n1.O=C(O)C(F)(F)F` [Compound 14, Cis-N-[trans-4-[2-[4-(2-tert-butyl-6-cyclobutyl-pyrimidin-4-yl)piperazin-1-yl]ethyl]cyclohexyl]-4-hydroxy-cyclohexanecarboxamide; 2,2,2-trifluoroacetic acid], in that order: “++ (++ >20)” and over 120 µL/min/mg. For the compound `COCc1cc(N2CCN(CC[C@H]3CC[C@H](NC(=O)[C@H]4C[C@@H](O)C4)CC3)CC2)nc(C(C)(C)C)n1` [Compound 40, cis-N-[trans-4-[2-[4-[2-tert-butyl-6-(methoxymethyl)pyrimidin-4-yl]piperazin-1-yl]ethyl]cyclohexyl]-3-hydroxy-cyclobutanecarboxamide], the microsomal CLint at 0.5 μM in data set [2] fell in the range of 20 to 120 µL/min/mg.
